According to PubChem BioAssay (NCI):
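Abbreviation: GI50, concentration required for 50% inhibition of growth. At the TGI there is no net growth.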

Legend:
Experiment in all cases: NCI anticancer screen, dose series, 384-well format
[1] = system: A498 renal
[2] = system: CAKI-1 renal
[3] = system: HCC-2998 colon
[4] = system: HCT-116 colon
[5] = system: HL-60(TB) leukemia
[6] = system: HOP-92 NSCLC
[7] = system: HS 578T breast
[8] = system: MALME-3M melanoma
[9] = system: MCF7 breast
[10] = system: NCI-H23 lung
[11] = system: OVCAR-5 ovarian
[12] = system: RPMI-8226 leukemia
[13] = system: UACC-62 melanoma

## NC1(c2ccc(-c3nc4ccn5c(=O)[nH]nc5c4cc3-c3ccccc3)cc2)CCC1
[1]
  GI50: 0.134 µM
  TGI: 1.19 µM
[2]
  GI50: 0.883 µM
  TGI: 2.6 µM
[3]
  GI50: 1.39 µM
  TGI: 2.78 µM
[4]
  GI50: 1.52 µM
  TGI: 2.96 µM
[5]
  GI50: 1.92 µM
  TGI: 3.36 µM
[6]
  GI50: 1.16 µM
  TGI: 2.66 µM
[7]
  GI50: 0.704 µM
  TGI: 2.17 µM
[8]
  GI50: 0.683 µM
  TGI: 2.21 µM
[9]
  GI50: 0.135 µM
  TGI: 1.72 µM
[10]
  GI50: 2.49 µM
  TGI: 7.48 µM
[11]
  GI50: 2.13 µM
  TGI: 7.16 µM
[12]
  GI50: 1.48 µM
  TGI: 3.24 µM
[13]
  GI50: 1.45 µM
  TGI: 5.45 µM
